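Following 48 hours of exposure in 96-well plates, responses at five concentrations were used to interpolate endpoints linearly. At the TGI there is no net growth.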
Tests used:
Assay in all cases: NCI-60 cell line screen, 48 h
HL-60(TB) leukemia = system: HL-60(TB) leukemia
MDA-N = system: MDA-N
HOP-92 NSCLC = system: HOP-92 NSCLC
ACHN renal = system: ACHN renal
T-47D breast = system: T-47D breast
RPMI-8226 leukemia = system: RPMI-8226 leukemia
NCI-H460 lung = system: NCI-H460 lung
OVCAR-8 ovarian = system: OVCAR-8 ovarian
OVCAR-5 ovarian = system: OVCAR-5 ovarian
HCC-2998 colon = system: HCC-2998 colon
A498 renal = system: A498 renal
M14 melanoma = system: M14 melanoma
SN12C renal = system: SN12C renal
HT29 colon = system: HT29 colon
A549 NSCLC = system: A549 NSCLC
MOLT-4 leukemia = system: MOLT-4 leukemia
HCT-15 colon = system: HCT-15 colon
UO-31 renal = system: UO-31 renal
TK-10 renal = system: TK-10 renal
MDA-MB-435 = system: MDA-MB-435
MDA-MB-231 breast = system: MDA-MB-231 breast
IGROV1 ovarian = system: IGROV1 ovarian
K-562 leukemia = system: K-562 leukemia
SF-295 CNS = system: SF-295 CNS
SNB-19 CNS = system: SNB-19 CNS
PC-3 prostate = system: PC-3 prostate
SW-620 colon = system: SW-620 colon
CCRF-CEM leukemia = system: CCRF-CEM leukemia
LOX IMVI melanoma = system: LOX IMVI melanoma
COLO 205 colon = system: COLO 205 colon
SK-OV-3 ovarian = system: SK-OV-3 ovarian
NCI-H23 lung = system: NCI-H23 lung
SNB-75 CNS = system: SNB-75 CNS
SK-MEL-28 melanoma = system: SK-MEL-28 melanoma
NCI-H226 lung = system: NCI-H226 lung
NCI/ADR-RES ovarian = system: NCI/ADR-RES ovarian
HOP-62 NSCLC = system: HOP-62 NSCLC
UACC-257 melanoma = system: UACC-257 melanoma
SK-MEL-5 melanoma = system: SK-MEL-5 melanoma
OVCAR-3 ovarian = system: OVCAR-3 ovarian
SR leukemia = system: SR leukemia
CAKI-1 renal = system: CAKI-1 renal
HS 578T breast = system: HS 578T breast
DU-145 prostate = system: DU-145 prostate
U251 CNS = system: U251 CNS
MCF7 breast = system: MCF7 breast
OVCAR-4 ovarian = system: OVCAR-4 ovarian
SK-MEL-2 melanoma = system: SK-MEL-2 melanoma
HCT-116 colon = system: HCT-116 colon
NCI-H522 lung = system: NCI-H522 lung
EKVX NSCLC = system: EKVX NSCLC
UACC-62 melanoma = system: UACC-62 melanoma
KM12 colon = system: KM12 colon
786-0 renal = system: 786-0 renal
SF-268 CNS = system: SF-268 CNS
SF-539 CNS = system: SF-539 CNS

Measured: TGI

CCOP(=O)(CN=C(c1ccccc1)c1ccccc1)OCC
not listed: EKVX NSCLC | UACC-62 melanoma | KM12 colon | 786-0 renal | SF-268 CNS | SF-539 CNS
> 100 µM: all other assays above

O=C1[C@@H]2C[C@@H](O)CN2C(=O)c2ccccc2N1CCCO
not listed: HL-60(TB) leukemia | HCC-2998 colon | CCRF-CEM leukemia | COLO 205 colon | NCI-H23 lung | SK-MEL-5 melanoma | SR leukemia | CAKI-1 renal | OVCAR-4 ovarian
> 100 µM: all other assays above

From PubChem BioAssay (NCI)
